Earlier results, collected in patent publication US12268679B1 (priority 2021, dated 2025).

Key:
human delta receptor = human delta receptor (Homo sapiens, UniProt P41143); conditions: Ferrari et al. 2017
[1] = animal studies, systemic administration, Hirao et al. 2008

Chain of human delta receptor (P41143 whole entry): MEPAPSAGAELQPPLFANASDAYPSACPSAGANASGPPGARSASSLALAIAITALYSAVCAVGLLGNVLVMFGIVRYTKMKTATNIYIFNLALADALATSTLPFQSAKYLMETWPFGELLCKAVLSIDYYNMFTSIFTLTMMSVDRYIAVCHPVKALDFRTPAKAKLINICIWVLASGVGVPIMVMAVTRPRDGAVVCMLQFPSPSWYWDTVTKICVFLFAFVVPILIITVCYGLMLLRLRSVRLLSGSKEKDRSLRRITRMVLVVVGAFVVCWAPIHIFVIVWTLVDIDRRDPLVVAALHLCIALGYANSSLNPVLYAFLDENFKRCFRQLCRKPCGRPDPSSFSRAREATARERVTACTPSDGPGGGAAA

In the case of CC1(N2CCC(n3c([C@@H]4CCCNC4)nc4ccccc43)CC2)CCCCCCC1 [MCOPPB, 1-[1-(1-methylcyclooctyl)-4-piperidinyl]-2-[(3R)-3-piperidinyl]-1H-benzimidazole], the “activation of human delta receptor” value (human delta receptor) is listed as “only a small amount”, the “inhibition of memory or motor function” value [1] is listed as “no inhibition of memory or motor function” and the sedative side effects ([1]; appear only at much higher doses than the effective anxiolytic dose range) is listed as “only slight sedative side effects”.
